One assay deals with T1, integrin α4β7 (Homo sapiens, UniProt P13612+P26010).
T1 construct: lymphoma cell strain RPMI-8866 of human B cells, known to express integrin α4β7; endogenous in cells; host or cells: RPMI-8866
T1 sequence (P13612 34-1032): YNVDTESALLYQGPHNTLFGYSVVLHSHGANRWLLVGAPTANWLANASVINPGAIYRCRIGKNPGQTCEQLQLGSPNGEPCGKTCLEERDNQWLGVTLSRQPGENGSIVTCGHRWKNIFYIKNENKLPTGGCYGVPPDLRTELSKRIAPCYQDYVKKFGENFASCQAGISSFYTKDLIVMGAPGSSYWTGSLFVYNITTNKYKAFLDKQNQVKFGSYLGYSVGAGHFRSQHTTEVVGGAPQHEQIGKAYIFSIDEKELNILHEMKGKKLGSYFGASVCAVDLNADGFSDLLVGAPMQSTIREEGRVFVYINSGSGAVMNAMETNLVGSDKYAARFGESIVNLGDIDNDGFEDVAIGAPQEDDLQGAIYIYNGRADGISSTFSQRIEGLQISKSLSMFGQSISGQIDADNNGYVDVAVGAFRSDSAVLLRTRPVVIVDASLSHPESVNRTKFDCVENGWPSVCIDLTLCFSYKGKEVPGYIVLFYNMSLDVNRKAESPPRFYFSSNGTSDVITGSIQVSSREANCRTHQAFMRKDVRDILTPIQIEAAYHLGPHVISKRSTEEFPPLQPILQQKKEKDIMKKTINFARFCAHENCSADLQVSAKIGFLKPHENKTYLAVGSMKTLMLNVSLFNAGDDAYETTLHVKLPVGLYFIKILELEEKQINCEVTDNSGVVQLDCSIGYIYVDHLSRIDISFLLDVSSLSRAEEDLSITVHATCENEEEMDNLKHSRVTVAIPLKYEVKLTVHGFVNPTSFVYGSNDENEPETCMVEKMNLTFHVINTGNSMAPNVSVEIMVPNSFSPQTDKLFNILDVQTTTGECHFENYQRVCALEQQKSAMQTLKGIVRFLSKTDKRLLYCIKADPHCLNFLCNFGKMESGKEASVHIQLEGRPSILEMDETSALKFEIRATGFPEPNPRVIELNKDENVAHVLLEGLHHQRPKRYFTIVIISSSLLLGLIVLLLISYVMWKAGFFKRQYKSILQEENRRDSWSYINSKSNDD
T1 sequence (P26010 20-798): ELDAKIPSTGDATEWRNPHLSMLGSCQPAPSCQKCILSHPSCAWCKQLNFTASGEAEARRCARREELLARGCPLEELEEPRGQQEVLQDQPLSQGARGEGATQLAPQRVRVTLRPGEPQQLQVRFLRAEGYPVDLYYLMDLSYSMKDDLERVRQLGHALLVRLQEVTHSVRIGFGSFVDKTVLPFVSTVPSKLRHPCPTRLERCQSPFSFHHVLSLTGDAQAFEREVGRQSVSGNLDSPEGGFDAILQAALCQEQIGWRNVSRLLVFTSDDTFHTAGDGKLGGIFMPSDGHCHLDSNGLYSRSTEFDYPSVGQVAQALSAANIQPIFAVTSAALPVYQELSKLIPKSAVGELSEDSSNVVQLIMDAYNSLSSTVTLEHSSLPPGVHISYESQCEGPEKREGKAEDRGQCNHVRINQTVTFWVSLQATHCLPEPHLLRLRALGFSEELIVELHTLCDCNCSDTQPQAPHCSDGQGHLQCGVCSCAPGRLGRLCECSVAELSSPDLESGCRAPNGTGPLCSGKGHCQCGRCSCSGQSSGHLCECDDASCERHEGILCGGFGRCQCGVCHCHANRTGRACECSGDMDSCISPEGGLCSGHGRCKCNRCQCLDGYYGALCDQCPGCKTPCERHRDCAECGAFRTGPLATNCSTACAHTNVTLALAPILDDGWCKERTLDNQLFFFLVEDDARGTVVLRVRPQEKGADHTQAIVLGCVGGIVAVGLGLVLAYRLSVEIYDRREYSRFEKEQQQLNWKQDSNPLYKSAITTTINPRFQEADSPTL
The assay is described as follows: VCAM antagonistic activity (VCAM-1/α4β7 binding assay), RPMI-8866 cells binding to VCAM-1. Format: cell-based. The following applies: RPMI-8866 human B lymphoma cells binding to recombinant human VCAM-1; binding buffer with 4 mM MnCl2. As for the experimental part: VCAM Antagonistic Activity (VCAM-1/α4β7 Binding Assay)
The capacity of a test substance antagonistic to the binding of lymphoma cell strain RPMI-8866 of human B cells, known to express integrin α4β7, to VCAM-1 was determined.
(§1) 100 μl/well of a solution (500 ng/ml) of recombinant human VCAM-1 (R & D systems) solution diluted with buffer A (0.1 M NaHCO3, pH 9.6) was added to a micro titer plate having 96 wells (Nunc Maxisorp). After the incubation at 4° C. overnight, unbound VCAM-1 was removed by washing once with PBS. After completion of the washing, a buffer (buffer B) obtained by diluting Block Ace (Dainippon Pharmaceutical Co., Ltd.) with PBS to ¼ concentration was added in an amount of 150 μl/well. After the incubation at room temperature for 1 hour, buffer B was removed and the plate was washed with PBS once.
RPMI-8866 cells were washed with DMEM twice and incubated in Dulbecco modified Eagle medium containing 10 μg/ml of Calcein-AM (Wako Pure Chemical Industries, Ltd.) (SIGMA, hereinafter referred to as “DMEM”) in dark place at 37° C. for 30 minutes to label with fluorescence. The cells were again suspended in a binding buffer (20 mM HEPES, DMEM containing 0.1% BSA) containing 4 mM of MnCl2.
(§2) 50 μl of a test substance of various concentrations obtained by the dilution with the binding buffer was added to the plate. Immediately thereafter, 50 μl (final volume: 100 μl/well) of the fluorescent RPMI-8866 cells (4×10^6 cells/ml) were added thereto, and they were incubated in dark place at room temperature for 30 minutes. After the shaking on a plate shaker (IKA MTS-4) at 800 rpm for 30 seconds, the solution was immediately removed to remove the unbound cells. The fluorescence quantity of the bound cells remaining in the wells was determined with a fluorescent plate reader (Wallac 1420 ARVO multi-label counter) (filter excitation wave length: 485 nm, emission wave length: 535 nm). The fluorescent strength thus obtained is proportional to the number of RPMI-8866 cells bound to VCAM-1 and remaining on the plate. The binding rate of each test material in various concentrations was determined while the fluorescent strength of the test material-free well was determined to be 100%.

The target of a further assay is T2, integrin α4β1 (Homo sapiens, UniProt P05556+P13612).
T2 construct: cell strain Jurkat (ATCC TIB-152) of human T cells, known to express integrin α4β1; endogenous in cells; host or cells: Jurkat (ATCC TIB-152)
The assay is described as follows: VCAM antagonist activity (VCAM-1/α4β1 binding assay), Jurkat cells binding to VCAM-1. The following applies: Jurkat human T cells binding to recombinant human VCAM-1; read-out: VCAM antagonistic activity (IC50) α4β1. Type of assay: cell-based. As for the experimental part: VCAM Antagonist Activity (VCAM-1/α4β1 Binding Assay)
The capacity of a test substance antagonistic to the binding of cell strain Jurkat (ATCC TIB-152) of human T cells, known to express integrin α4β1, to VCAM-1 was determined.
as §1
Jurkat cells were washed with Dulbecco modified Eagle medium (SIGMA, hereinafter referred to as “DMEM”) twice and then incubated in DMEM containing 10 μg/ml of Calcein-AM (Wako Pure Chemical Industries, Ltd.) at 37° C. in dark place for 30 minutes to label with fluorescence. The cells were again suspended in a binding buffer (20 mM HEPES, DMEM containing 0.1% BSA).
as §2, with “Jurkat” for “RPMI-8866”, “1920” for “1420”

This passage reports IC50 results from patent publication US8426588B2, “Phenylalanine derivatives” (Ajinomoto Co, Inc., priority 2000, dated 2013).

As usually defined, the IC50 is the midpoint of a concentration-inhibition curve.

T2 sequence (P05556 21-798, one chain of several): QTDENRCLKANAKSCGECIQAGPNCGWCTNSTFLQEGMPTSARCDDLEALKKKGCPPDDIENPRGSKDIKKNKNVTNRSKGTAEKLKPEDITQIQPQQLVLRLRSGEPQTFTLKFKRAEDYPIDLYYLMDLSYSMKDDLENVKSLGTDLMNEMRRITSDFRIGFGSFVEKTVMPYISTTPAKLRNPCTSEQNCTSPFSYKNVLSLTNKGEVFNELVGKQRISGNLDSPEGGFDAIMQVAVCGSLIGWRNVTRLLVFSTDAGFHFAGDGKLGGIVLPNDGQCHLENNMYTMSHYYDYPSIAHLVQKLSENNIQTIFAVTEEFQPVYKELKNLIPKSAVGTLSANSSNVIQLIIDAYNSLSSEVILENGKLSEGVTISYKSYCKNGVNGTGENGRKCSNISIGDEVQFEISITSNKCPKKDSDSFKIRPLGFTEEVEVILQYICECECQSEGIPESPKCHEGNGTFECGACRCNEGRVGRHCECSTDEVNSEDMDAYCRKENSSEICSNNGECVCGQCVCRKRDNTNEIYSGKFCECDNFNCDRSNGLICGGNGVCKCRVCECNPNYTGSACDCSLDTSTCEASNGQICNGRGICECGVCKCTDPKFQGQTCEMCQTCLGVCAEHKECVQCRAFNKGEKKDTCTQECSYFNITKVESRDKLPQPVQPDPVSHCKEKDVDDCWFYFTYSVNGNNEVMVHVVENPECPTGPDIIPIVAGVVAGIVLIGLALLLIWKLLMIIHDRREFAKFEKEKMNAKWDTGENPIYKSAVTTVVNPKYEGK

Regarding `Cn1c(=O)n(-c2ccc(C[C@H](NC(=O)c3c(Cl)cccc3Cl)C(=O)O)cc2)c(=O)c2cc(N)ccc21` [Example 107], the figures for the IC50 on integrin α4β7 and on integrin α4β1 were 1.1 nM and 17 nM, respectively.
Consider `Cn1c(=O)n(-c2ccc(C[C@H](NC(=O)c3c(Cl)cccc3Cl)C(=O)O)cc2)c(=O)c2c(Cl)ccc(Cl)c21` [Example 70], for which the IC50 amounted to 3.5 nM on integrin α4β7 and 34 nM on integrin α4β1.
For `O=C(N[C@@H](Cc1ccc(-n2c(=O)[nH]c3nccnc3c2=O)cc1)C(=O)O)c1c(Cl)cccc1Cl` [Example 80], the concentration for half-maximal inhibition (IC50) worked out at 74 nM on integrin α4β7 and 960 nM at integrin α4β1.
Consider `O=C(N[C@@H](Cc1ccc(-n2nnc3ccccc3c2=O)cc1)C(=O)O)c1c(Cl)cccc1Cl` [Example 90], for which the values for the half-inhibitory concentration (IC50) on integrin α4β7 and at integrin α4β1 were 43.7 nM and 511 nM, respectively.
For the compound `CCN(CC)c1ccc2c(c1)c(=O)n(-c1ccc(C[C@H](NC(=O)c3c(Cl)cccc3Cl)C(=O)O)cc1)c(=O)n2C` [Example 111], the IC50 is 11 nM at integrin α4β7 and 88 nM at integrin α4β1.
`O=C(N[C@@H](Cc1ccc(-n2c(=O)c3cc([N+](=O)[O-])ccc3n(C3CC3)c2=S)cc1)C(=O)O)c1c(Cl)cccc1Cl` [Example 68]: the figures for the IC50 on integrin α4β7 and at integrin α4β1 were 1.5 nM and 350 nM, respectively.
Consider `CC(C)Cn1c(=O)n(-c2ccc(C[C@H](NC(=O)c3c(Cl)cccc3Cl)C(=O)O)cc2)c(=O)c2cc([N+](=O)[O-])ccc21` [Example 61], for which the results for the concentration for half-maximal inhibition (IC50) at integrin α4β7 and on integrin α4β1 were 42 nM and 1150 nM, respectively.
For `COc1cc2c(=O)n(-c3ccc(C[C@H](NC(=O)c4c(Cl)cccc4Cl)C(=O)O)cc3)c(=O)n(C)c2cc1OC` [Example 188], the figures for the IC50 on integrin α4β7 and at integrin α4β1 were 2.7 nM and 11 nM, respectively.
Consider `Cn1c(=O)n(-c2ccc(C[C@H](NC(=O)c3c(Cl)cccc3Cl)C(=O)O)cc2)c(=O)c2cc(F)ccc21` [Example 189], for which the results for the IC50 at integrin α4β7 and on integrin α4β1 were 1.1 nM and 18 nM, respectively.
In the case of `CCn1c(=S)n(-c2ccc(C[C@H](NC(=O)c3c(Cl)cccc3Cl)C(=O)O)cc2)c(=O)c2cc([N+](=O)[O-])ccc21` [Example 67], the results for the IC50 at integrin α4β7 and on integrin α4β1 were 2.2 nM and 370 nM, respectively.
On the same counts, the results for `Cc1cccc2c(=O)n(-c3ccc(C[C@H](NC(=O)c4c(Cl)cccc4Cl)C(=O)O)cc3)c(=O)[nH]c12` [Example 50] are 7.9 nM and 1770 nM.
As to `Cc1cccc(C)c1C(=O)N[C@@H](Cc1ccc(-n2c(-c3ccccc3)nc3ccccc3c2=O)cc1)C(=O)O` [Example 42], the IC50 on integrin α4β7 worked out at 92 nM; at integrin α4β1, 6730 nM.
Turning to `Cn1c(=S)n(-c2ccc(C[C@H](NC(=O)c3c(Cl)cccc3Cl)C(=O)O)cc2)c(=O)c2cc([N+](=O)[O-])ccc21` [Example 66], the results for the IC50 on integrin α4β7 and on integrin α4β1 were 1.3 nM and 170 nM, respectively.
For the compound `O=C(N[C@@H](Cc1ccc(-n2c(=O)[nH]c3ccccc3c2=O)cc1)C(=O)O)c1c(Cl)cccc1Cl` [Example 2], the half-inhibitory concentration (IC50) at integrin α4β7 was 9.2 nM; on integrin α4β1, 240 nM.
For the compound `COc1ccc2c(=O)n(-c3ccc(C[C@H](NC(=O)c4c(Cl)cccc4Cl)C(=O)O)cc3)c(=O)oc2c1` [Example 139], the half-inhibitory concentration (IC50) was 17 nM at integrin α4β7 and 107 nM on integrin α4β1.
The corresponding values for `CC(=O)Nc1ccc2c(c1)c(=O)n(-c1ccc(C[C@H](NC(=O)c3c(Cl)cccc3Cl)C(=O)O)cc1)c(=O)n2C` [Example 104] are 1.4 nM and 16 nM.
On the same counts, the results for `CCc1nc2ccccc2c(=O)n1-c1ccc(C[C@H](NC(=O)c2c(Cl)cccc2Cl)C(=O)O)cc1` [Example 32] are 64 nM and 2420 nM.
On the same counts, the results for `Nc1ccc2c(=O)n(-c3ccc(C[C@H](NC(=O)c4c(Cl)cccc4Cl)C(=O)O)cc3)c(=O)oc2c1` [Example 142] are 9 nM and 210 nM.
In the case of `Cn1c(=O)n(-c2ccc(C[C@H](NC(=O)c3c(Cl)cccc3Cl)C(=O)O)cc2)c(=O)c2cccnc21` [Example 74], the half-maximal inhibitory concentration (IC50) was found to be 2.5 nM at integrin α4β7 and 53 nM at integrin α4β1.
The corresponding values for `COc1cccc2c(=O)n(-c3ccc(C[C@H](NC(=O)c4c(Cl)cccc4Cl)C(=O)O)cc3)c(=O)n(C)c12` [Example 180] are 5.4 nM and 86 nM.
For the compound `COc1cccc(OC)c1C(=O)N[C@@H](Cc1ccc(-n2c(=O)c3ccccc3n(C)c2=O)cc1)C(=O)O` [Example 9], the results for the IC50 at integrin α4β7 and on integrin α4β1 were 94 nM and 440 nM, respectively.
Consider `O=C(N[C@@H](Cc1ccc(-n2c(=O)oc3ccccc3c2=O)cc1)C(=O)O)c1c(Cl)cccc1Cl` [Example 136], for which the IC50 on integrin α4β7 turned out to be 3 nM; at integrin α4β1, 565 nM.
